Source: patent US9744186B2 (priority 2012, dated 2017)

Key:
[1] = in vitro
Method: (§1) Plating Cells: The Huh7 cell line was passaged when it was at about 70% confluency. The cells were counted using a hemocytometer, followed by dilution of the cells to 0.5×10^5 cells per mL in DMEM+10% FBS. The cells were plated at 100 μL (5,000 cells) per well in a clear 96-well plate. The cells were allowed to attach for 24 hours at 37° C.
(§2) Treating the cells: The media (DMEM media without phenol red+2% FBS media) was pre-warmed to 37° C. […] This provided a final DMSO concentration of 0.5%. The 100 mM stock of 3,5-dichlorobenzoic acid was diluted in DMEM without phenol red+2% FBS to a concentration of 0.5 mM. The working 0.5 mM diluted test drugs were serially diluted in DMEM without phenol red+2% FBS+0.5% DMSO in order to maintain a constant concentration of DMSO in each condition. The 96-well plate was removed from the 37° C. incubator, and the media on the plate was replaced with media containing diluted test drug.
(§3) MTS Assay: The reagents from CellTiter 96 kit (Promega Corporation, Madison, Wis.) were thawed at room temperature in the dark for 1 h. The 96-well plate was removed from the 37° C. incubator at 48 h after drug treatment. 20 μL of the combined MTS/PMS reagent to each well of the plate, mixed, and the plate returned to 37° C. The absorbance of each well at 490 nm and 650 nm was determined using the Flexstation 3 microplate reader in endpoint mode every hour for 3 h. The solutions in the wells were mixed prior to each reading. The data were fit to the Emax model: y=(Emax*x)/(TC50+x), where Emax is the maximum inhibition and TC50 is the inhibitory dose 50%. Alternatively, the data can be fit to the Emax sigmoidal model: y=(Emax*x^slope)/(TC50^slope+x^slope), where slope is the Hill Slope.

[2] = Compound solubility in media; type: physicochemical; details: DMEM+2% FBS cell culture media, 37 °C, plasma or biological fluid, kinetic from dmso stock; DMEM+2% FBS media
Method: (§4) Treating the cells: Media (DMEM+2% FBS) was pre-warmed to 37° C. […] The 96-well plate was removed from the 37° C. incubator, and the media replaced on the plate with the serial dilutions of the test drug. The plate was then returned to 37° C. for 48 h.

[3] = tested on: HCV luciferase replicon; experiment: HCV luciferase replicon IC50 assay in Huh7 cells; details: for IC50: Hepatitis C virus, Huh-7, 48 h, Huh7 cells containing HCV luciferase replicon, cells exposed to drug for 48 h; for Therapeutic Index (TC50/IC50): TC50 in Huh7 / IC50 HCV replicon, 48 h
Method: Plating Cells: The Luciferase replicon cell line was passaged when it was at about 70% confluency. The cells were counted by using a hemocytometer and diluted to 1×10^5 cells per mL in DMEM+10% FBS+[…] G415. The cells were plated as follows: 100 μL of the cells (10,000 cells) per well in a white-walled 96-well plate. The cells were allowed to attach for 24 hours at 37° C.
as §4
Luciferase Assay: The Bright-Glo reagent (Promega Corporation, Madison, Wis.) was removed from the −80° C. freezer and allowed to thaw it at 4° C. in the dark. The amount of reagent necessary for the experiment (3.65 mL) was removed, and the remaining reagent was returned to −80° C. The Glo Lysis Buffer and the Bright Glow reagent were allowed to warm to room temperature for 30 min in the dark. The 96 well plate was removed from the incubator and the cells to allowed cool to room temperature for 30 min. The media was removed from the cells, and each well was gently washed in 100 μL of phosphate buffered saline (PBS). The PBS was removed and then 50 μL of the Glo Lysis Buffer was added to each well, followed by gently rocking the plate for 15 min at room temperature in the dark to ensure complete cell lysis. To each well of the 96-well plate was added 50 μL of the Bright Glo reagent and it was mixed well with the lysate. The plate was inserted into a GloMax 96 plate reader and allowed to sit for 5 min in the dark for the luciferase reaction to reach a steady state. The luminescence on the plate was read by using the pre-installed “Bright Glo” Promega program (Synergy Software) and the data were collected and saved. The data were fit to a 4 parameter logistic curve using Kaleidagraph using the following equation: 100/(1+(x/m3)^m4).
The data in Table 1 were determined for cells exposed to drug for 48 h. The IC50 is the concentration of each compound necessary to inhibit the replication of the HCV luciferase replicon to 50%.
That is, the cells were exposed to drug for 2 h at 37° C., followed by 46 h at 37° C. or incubated in the presence of drug for 48 h at 37° C.

[4] = tested on: hENT1; experiment: TC50 MTS assay with human cancer cell lines: Huh7; type: cell-based; details: human, Huh7 cells; 48 h drug treatment; 10 μM S-(4-nitrobenzyl)-6-thioinosine (hENT1 inhibitor) added; read-out: TC50 (μM) in Huh7 cells NBTI
Method: (§5) Plating Cells: The Huh7, HEPG2, HEK293, MCF-7, PK9, RPK9, or BxPC3 cells were passaged when they were about 70% confluent. The cells were counted using a hemocytometer, and then diluted cells to 0.5×10^5 cells per mL in DMEM+10% FBS. 100 µL of the cells (5,000 cells) were plated per well in a clear 96-well plate. The cells were allowed to attach for 24 hours at 37° C.
(§6) Treating the cells: Pre-warm the DMEM media without phenol red+2% FBS media to 37° C. […] This will bring the final DMSO concentration to 0.5%. Use these 0.5 mM dilutions to further serially the drugs in DMEM without phenol red+2% FBS+0.5% DMSO. This will keep the concentration of DMSO in each condition identical. Remove the 96-well plate from the 37° C. incubator. Replace the media on the plate with the dilutions of the drugs. Stagger these treatments by 1 h and write the treatment time on each set of plates. Return to 37° C. for 48 h or 96 h as indicated.
as §3, with “Fit Data” for “The data were fit”, “Alternatively, fit” for “Alternatively,”, “data” for “data can be fit”
(§7) Each TC50 was the average value of three measurements as described herein. […] The RPK9 cells are deficient in deoxycytidine kinase (“dCK”) activity, an enzyme required for the initial phosphorylation of dFdC to dFdCMP (see FIG. 2).

[5] = TC50 MTS assay with human cancer cell lines: Huh7; type: cell-based; details: human, Huh7 cells; 48 h drug treatment; no hENT1 inhibitor; read-out: TC50 (μM) in Huh7 cells Control
Method: as §5, §6
as §3, with “Fit Data” for “The data were fit”, “Alternatively, fit” for “Alternatively,”, “data” for “data can be fit”
as §7

[6] = TC50 MTS assay with human cancer cell lines: HEPG2; type: cell-based; details: HEPG2 cells, 96 h drug treatment
Method: as §5, §6
as §3, with “Fit Data” for “The data were fit”, “Alternatively, fit” for “Alternatively,”, “data” for “data can be fit”
as §7

[7] = TC50 MTS assay with human cancer cell lines: HEK293; type: cell-based; details: HEK293 cells, 96 h drug treatment
Method: as §5, §6
as §3, with “Fit Data” for “The data were fit”, “Alternatively, fit” for “Alternatively,”, “data” for “data can be fit”
as §7

[8] = TC50 MTS assay with human cancer cell lines: MCF-7; type: cell-based; details: MCF-7 cells, 96 h drug treatment
Method: as §5, §6
as §3, with “Fit Data” for “The data were fit”, “Alternatively, fit” for “Alternatively,”, “data” for “data can be fit”
as §7

[9] = tested on: Huh7 cells; experiment: in vitro; details: read-out: TC50; control Huh7 cells; 48 h drug exposure; MTS
Method: as §1, §2, §3

[10] = tested on: Huh7 cells; experiment: TC50 MTS assay with human cancer cell lines: Huh7; type: cell-based; details: 96 h drug treatment
Method: as §5, §6
as §3, with “Fit Data” for “The data were fit”, “Alternatively, fit” for “Alternatively,”, “data” for “data can be fit”
as §7

[11] = tested on: HCV luciferase replicon; experiment: Reversal of anti-HCV activity by exogenous nucleosides; type: cell-based, hepatitis C virus (HCV); details: 48 h
Method: After 48 hours, the cells were lysed, and the total luciferase activity was determined. […] Where indicated, either 50 μM cytidine (C) or 50 μM 2′-deoxycitidine (dC) was also included.
The cells were plated, incubated with drug, and luciferase activity assayed essentially as described herein above. The incubation with drug was for 48 h.

| SMILES | CC50 at 48 h [1] | solubility [2] | IC50 [3] | Therapeutic Index (TC50/IC50) [3] | further results |
| --- | --- | --- | --- | --- | --- |
| O=C(Nc1ccn(C2O[C@H](CO)[C@@H](O)C2(F)F)c(=O)n1)c1ccc(Cl)cc1Cl (stereo partly drawn) [VV-006] | > 100 µM | < 500 µM | 0.0775 ± 0.007 µM | >1290 |  |
| O=C(Nc1ccn(C2O[C@H](CO)[C@@H](O)C2(F)F)c(=O)n1)c1ccc(Cl)cc1 (stereo partly drawn) [VV-033H] | 138 ± 28 µM |  | 0.0376 ± 0.0054 µM | 3670 |  |
| CCc1ccc(C(=O)Nc2ccn(C3O[C@H](CO)[C@@H](O)C3(F)F)c(=O)n2)cc1 (stereo partly drawn) [VV-038] |  |  | 0.0584 ± 0.0099 µM | 8430 | CC50 at 48 h [4]: 360 ± 80 µM; CC50 at 48 h [5]: 492 ± 58 µM |
| NC(=O)c1ncn([C@@H]2O[C@H](CO)[C@@H](O)[C@H]2O)n1 [ribavirin, reference compound] | 527 ± 68.2 µM | > 500 µM | 51.6 ± 2.08 µM | 10.2 |  |
| COc1ccc(C(=O)Nc2ccn(C3O[C@H](CO)[C@@H](O)C3(F)F)c(=O)n2)c(OC)c1OC (stereo partly drawn) [VV-022] | 300 ± 39 µM | > 500 µM | 0.0346 ± 0.0035 µM | 8670 |  |
| O=C(Nc1ccn(C2O[C@H](CO)[C@@H](O)C2(F)F)c(=O)n1)c1ccc(Cl)c(Cl)c1 (stereo partly drawn) [VV-007] | > 100 µM | > 500 µM | 0.0174 ± 0.0018 µM | >5750 |  |
| COc1ccc(C(=O)Nc2ccn(C3O[C@H](CO)[C@@H](O)C3(F)F)c(=O)n2)cc1 (stereo partly drawn) [VV-013] | 572 ± 73 µM | > 500 µM | 0.06 ± 0.0082 µM | 9530 |  |
| COc1c(Cl)cc(C(=O)Nc2ccn(C3O[C@H](CO)[C@@H](O)C3(F)F)c(=O)n2)cc1Cl (stereo partly drawn) [VV-012] | > 100 µM | > 500 µM | 0.0193 ± 0.0016 µM | >5180 |  |
| COc1cc(OC)cc(C(=O)Nc2ccn([C@@H]3O[C@H](CO)[C@@H](O)C3(F)F)c(=O)n2)c1 [Compound G3DB, N^4-(3,5-Dimethoxybenzoyl)gemcitabine] |  | > 500 µM | 0.0734 ± 0.012 µM | 13100 | CC50 at 96 h [6]: 3.86 ± 1.42 µM; CC50 at 96 h [7]: 4.02 ± 0.79 µM; CC50 at 96 h [8]: 1.57 ± 0.338 µM; CC50 [9]: 962 ± 110 µM; CC50 [10]: 18.5 ± 5.32 µM; reversal of the inhibition of the HCV luciferase replicon by deoxycytidine and cytidine ([11]; drug 1000, 100 or 25 nM, 50 μM cytidine or 2′-deoxycitidine): reversal |
| COc1cccc(OC)c1C(=O)Nc1ccn([C@@H]2O[C@H](CO)[C@@H](O)C2(F)F)c(=O)n1 [Compound G2DB, N^4-(2,6-Dimethoxybenzoyl)gemcitabine] |  |  | 0.451 ± 0.037 µM | 10155 | CC50 [9]: 4580 ± 1100 µM |
| O=C(O)c1cc(Cl)cc(Cl)c1 [3,5-dichlorobenzoic acid, reference compound] |  |  |  |  | effect on the HCV luciferase replicon ([11]; up to 500 μM): little effect |
| Cc1ccc(C(=O)Nc2ccn(C3O[C@H](CO)[C@@H](O)C3(F)F)c(=O)n2)cc1 (stereo partly drawn) [VV-036] |  |  | 0.0431 ± 0.0044 µM | 7650 | CC50 at 48 h [4]: 240 ± 40 µM; CC50 at 48 h [5]: 329 ± 57 µM |
